The values that follow come from patent US11723359B2, “Disposable antimicrobial wipes and methods of making” (Ecolab USA Inc., priority 2015, dated 2023).

Data set [1] in a line: pH of citric acid and acetic acid at varying concentrations. It is filed as physicochemical. The procedure: Wipes were prepared as described in Example 1 above. Citric acid at concentrations of Oppm, 500 ppm, 1000 ppm, 2000 and 4000 ppm were separately applied to the Tencel® substrates along with Bardac 205 quaternary ammonium. The wipes were prepared in duplicate. The organic acid and quaternary ammonium chemicals were added to the textile simultaneously. The following is a table showing the pH of citric acid and acetic acid at varying concentrations: […]

The nature of data set [2]: Squeeze method: expression of quaternary ammonium from treated Tencel wipes, quantified by HPLC. It is filed as physicochemical. The following applies: Example 3, FIG. 4, citric acid 0, 500, 1000, 2000, 4000 ppm with Bardac 205 on Tencel, 24 hours soak. As for the experimental part: Wipes were prepared as described in Example 1 above. […] The wipes were prepared in duplicate. The organic acid and quaternary ammonium chemicals were added to the textile simultaneously.

In the case of `CC(=O)O` [Acetic Acid, acetic acid], the pH in data set [1] (concentration 10 ppm) was 2.69; in data set [1] (concentration 50 ppm), 2.62; in data set [1] (concentration 500 ppm), 2.56.

For the molecule `O=C(O)CC(O)(CC(=O)O)C(=O)O` [Citric Acid, citric acid], the pH came out at 2.48 in data set [1] (concentration 10 ppm), 2.58 in data set [1] (concentration 50 ppm) and 2.65 in data set [1] (concentration 500 ppm).

Consider alkyl dimethyl benzyl ammonium chloride, for which the “release of dimethyl benzyl ammonium chloride from wipe” value in data set [2] is “As the citric acid concentration increased, the amount of quaternary ammonium released also increased”.
